Patent publication US8314255B2, “Use of phthalimide and/or sulphonamide derivatives in the treatment of diseases which require reducing the TNF- α levels and an exogenous source of nitric oxide, phthalimide derivatives, sulphonamide derivatives, and a method for obtaining a sulphonamide derivative” (priority 2007, dated 2012)

Key:
[1] = test system: Salmonella typhimurium TA100; assay: AMES test, mutagenic evaluation in Salmonella typhimurium TA100 strain with/without metabolic activation (S9); format: cell-based
Protocol: (§1) The procedure was firstly developed by (MARON, D. M. and AMES, B. N. Mut. Res. v. 113, pp. 173-215, 1983)
(§2) For this assay, Salmonella typhimurium TA100 and TA102 strains from the mutagenicity laboratory of the “Faculdade de Ciências Farmacêuticas—UNESP Araraquara” were used. Such strains have the following characteristics: (AMES, 1983)
(§3) The positive controls are mutagenic compounds specific for each strain and test condition, with 25 μL/plate of sodium azide (1.25 μg/plate) and 100 μL of mitomycin (0.5 μg/plate) being the controls for TA100 and TA102, respectively, in the absence of metabolic activation. For assays with metabolic activation, the positive control for TA100 is 50 μL 2-antramine (1.25 μg/plate) and for TA102 it is 50 μL 2-aminofluorene (1.25 μg/plate).
(§4) The preincubation method was used.
(§5) In laminar flow, Salmonella typhimurium (TA100 and TA 102) strains were inoculated individually with a platinum loop, in the respective nutrient broths and maintained at 37° C., under constant stirring (160 rpm) during 14 hours, in order to achieve a density of 1 to 2×10^9 bacteria/mL.
(§6) Different concentrations of the compounds were added into 100 μL of 0.2M phosphate buffer pH 7.4 (or 500 μL of the mixture S9 in metabolic activation assays) and incubated for 20-30 minutes at 37° C. Solutions containing the compounds had DMSO as the solvent. Thereafter, 2 mL of top agar supplemented with traces of histidine and biotin was added, homogenized and plated in glycosylated minimum medium. After solidification of the top agar, the plates were incubated for 48 hours at a 37° C. Then, the counting of the number of revertant colonies per plate was performed. All tested concentrations, positive and negative controls were run in triplicate.
(§7) After 48 hours, the revertant colonies were counted manually, and the protoCOL Colony Counter Version 3.15.630 (1998-2001) SYNBIOSIS LTD system was used for the positive control.
(§8) The final data obtained from the assay was analyzed using the statistical software Salanal (Salmonella Assay Analysis) version 1.0 from the Research Triangle Institute, RTP, North Carolina, USA. Such software allows the dose-response effect to be evaluated by means of analysis of variance (ANOVA-test F) computations between the measurement of the number of revertants at the different tested concentrations (doses) and the negative control, followed by a linear regression. The software model chosen for analyzing the data was Bernstein's (BERNSTEIN, L. et al. Mutat. Res. v. 97, p. 267-281, 1982). The slope of the straight line from the linear portion of the dose-response curve is also provided by this software and corresponds to the number of revertants induced per measurement unit of the analyzed sample.
(§9) From the results, the mutagenicity ratio (MR) was computed for each analyzed dose from each compound. MR is given by the following equation:
(§10) MR=average number of revertants per test plate (spontaneous+induced revertants) […] average number of revertants per plate of the negative control (spontaneous revertants)
(§11) The spontaneous growing means that the number of revertants which developed on the plate, regardless of being induced or not, wherein values higher or equal to 2 are considered as a positive response (VALENT, G. V. et al. Env. Toxicol. Water Quality. v. 8, p. 371-381, 1993).
(§12) The mutagenicity test with metabolic activation system was performed with a microsomal fraction S9 (S9 mix) prepared from a liver homogenizate from Sprague Dawley rats, previously treated with Aroclor 1254, acquired in the freeze-dried form.
(§13) The procedure for this assay is the same, however, instead of the buffer, 500 μL of the S9 mixture should be added.
(§14) The S9 mixture has a viability of 4 hours from preparation when put on ice. The plates are then incubated for 48 hours at 37° C. After the required time has elapsed, the counting of the revertant colonies was carried out. All tested concentrations, positive and negative controls were run in triplicate.

[2] = test system: Salmonella typhimurium TA102; assay: AMES test, mutagenic evaluation in Salmonella typhimurium TA102 strain with/without metabolic activation (S9); format: cell-based
Protocol: as §1, §2, §3, §4, §5, §6, §7, §8, §9, §10, §11, §12, §13, §14

[3] = test system: abdominal writhing induced by acetic acid; assay: Abdominal writhing assay induced by acetic acid; format: in vivo; details: oral, mice, acetic acid 0.1N i.p. after 1 hour, writhings counted during 20 minutes
Protocol: In order to evaluate the peripheral analgesic activity of the compounds, an abdominal writhing assay induced by acetic acid (Table 6) was carried out. In this assay, we could infer that compound ID has an important analgesic activity, inhibiting abdominal writhing by 66%. […] The analgesic activity may be related to the ability of these compounds to inhibit the cytokine TNFα, since it is known that this would be one of the mechanisms that explain the analgesia of molecules such as thalidomide.
The antinociceptive profile was evaluated through the abdominal writhing assay induced by acetic acid in mice. In this assay, Swiss mice from both genders were used, weighing from 21 to 28 grams, fasted for a time period of about 8 hours. The test substance was administered orally and had, as a carrier, 5% gum arabic. After 1 hour, the administration of acetic acid 0.1N (0.1 mL/10 g weight) was performed in the peritoneal cavity of the animals. Ten minutes after the injection of acetic acid, writhings were counted during 20 minutes.

`O=C1c2ccccc2C(=O)N1CO[N+](=O)[O-]` [Compound IA, (1,3-dioxo-1,3-dihydro-2H-isoindol-2-yl)methyl nitrate] was tested, and the “mutagenicity ratio (MR)” value ([1]; TA 100, +S9, 7.25 nmol/plate) was 1.19, the “number of revertants per plate” value ([1]; TA 100, +S9, 7.25 nmol/plate) was 154 ± 14.2 revertants/plate and the “mutagenicity ratio (MR)” value ([1]; TA 100, +S9, 14.5 nmol/plate) was 1.19. The “number of revertants per plate” value ([1]; TA 100, +S9, 14.5 nmol/plate) was 155 ± 5.9 revertants/plate, the “mutagenicity ratio (MR)” value ([1]; TA 100, +S9, 29 nmol/plate) was 1.08 and the “number of revertants per plate” value ([1]; TA 100, +S9, 29 nmol/plate) was 140.3 ± 2 revertants/plate. For the same compound, the “mutagenicity ratio (MR)” value ([1]; TA 100, +S9, 56 nmol/plate) was 0.97, the “number of revertants per plate” value ([1]; TA 100, +S9, 56 nmol/plate) was 126.3 ± 8.1 revertants/plate and the “mutagenicity ratio (MR)” value ([1]; TA 100, +S9, 112 nmol/plate) was 1.03. The “number of revertants per plate” value ([1]; TA 100, +S9, 112 nmol/plate) was 133.3 ± 11 revertants/plate, the “mutagenicity ratio (MR)” value ([1]; TA 100, −S9, 7.25 nmol/plate) was 1.03 and the “number of revertants per plate” value ([1]; TA 100, −S9, 7.25 nmol/plate) was 140.5 ± 17 revertants/plate. For the same compound, the “mutagenicity ratio (MR)” value ([1]; TA 100, −S9, 14.5 nmol/plate) was 1.18, the “number of revertants per plate” value ([1]; TA 100, −S9, 14.5 nmol/plate) was 161.7 ± 11 revertants/plate and the “mutagenicity ratio (MR)” value ([1]; TA 100, −S9, 29 nmol/plate) was 0.9. For the same compound, the “number of revertants per plate” value ([1]; TA 100, −S9, 29 nmol/plate) was 122.7 ± 3.06 revertants/plate, the “mutagenicity ratio (MR)” value ([1]; TA 100, −S9, 56 nmol/plate) was 1.71 and the “number of revertants per plate” value ([1]; TA 100, −S9, 56 nmol/plate) was 234 ± 39.5 revertants/plate. For the same compound, the “mutagenicity ratio (MR)” value ([1]; TA 100, −S9, 112 nmol/plate) was 2.45, the “number of revertants per plate” value ([1]; TA 100, −S9, 112 nmol/plate) was 335 ± 15.7 revertants/plate and the “concentration above which toxicity is observed (reduction on the number of revertants per plate)” value ([2]; TA102 (+S9)) was “higher than 56 nmol”. The “mutagenicity ratio (MR)” value ([2]; TA 102, +S9, 7.25 nmol/plate) was 1.4, the “number of revertants per plate” value ([2]; TA 102, +S9, 7.25 nmol/plate) was 298 ± 11.3 revertants/plate and the “mutagenicity ratio (MR)” value ([2]; TA 102, +S9, 14.5 nmol/plate) was 1.5. The “number of revertants per plate” value ([2]; TA 102, +S9, 14.5 nmol/plate) was 320.8 ± 17 revertants/plate, the “mutagenicity ratio (MR)” value ([2]; TA 102, +S9, 29 nmol/plate) was 1.8 and the “number of revertants per plate” value ([2]; TA 102, +S9, 29 nmol/plate) was 385 ± 21.8 revertants/plate. For the same compound, the “mutagenicity ratio (MR)” value ([2]; TA 102, +S9, 56 nmol/plate) was 2.34, the “number of revertants per plate” value ([2]; TA 102, +S9, 56 nmol/plate) was 499 ± 8.9 revertants/plate and the “mutagenicity ratio (MR)” value ([2]; TA 102, +S9, 112 nmol/plate) was 1.64. For the same compound, the “number of revertants per plate” value ([2]; TA 102, +S9, 112 nmol/plate) was 351.2 ± 12 revertants/plate, the “mutagenicity ratio (MR)” value ([2]; TA 102, −S9, 7.25 nmol/plate) was 1.33 and the “number of revertants per plate” value ([2]; TA 102, −S9, 7.25 nmol/plate) was 263.7 ± 15 revertants/plate. For the same compound, the “mutagenicity ratio (MR)” value ([2]; TA 102, −S9, 14.5 nmol/plate) was 1.26, the “number of revertants per plate” value ([2]; TA 102, −S9, 14.5 nmol/plate) was 249.7 ± 12 revertants/plate and the “mutagenicity ratio (MR)” value ([2]; TA 102, −S9, 29 nmol/plate) was 1.32. The “number of revertants per plate” value ([2]; TA 102, −S9, 29 nmol/plate) was 261.3 ± 20 revertants/plate, the “mutagenicity ratio (MR)” value ([2]; TA 102, −S9, 56 nmol/plate) was 0.77 and the “number of revertants per plate” value ([2]; TA 102, −S9, 56 nmol/plate) was 153 ± 21 revertants/plate. For the same compound, the “mutagenicity ratio (MR)” value ([2]; TA 102, −S9, 112 nmol/plate) was 0.71, the “number of revertants per plate” value ([2]; TA 102, −S9, 112 nmol/plate) was 141 ± 18 revertants/plate and the “Average (abdominal writhings)” value [3] was 28.6.

`O=C1c2ccccc2C(=O)N1c1ccc(CCO[N+](=O)[O-])cc1` [Compound IE, 2-[4-(1,3-dioxo-1,3-dihydro-2H-isoindol-2-yl)phenyl]ethyl nitrate] was tested, and the “mutagenicity ratio (MR)” value ([1]; TA 100, +S9, 0.12 μmol/plate) was 2.8, the “number of revertants per plate” value ([1]; TA 100, +S9, 0.12 μmol/plate) was 363 ± 25.2 revertants/plate and the “mutagenicity ratio (MR)” value ([1]; TA 100, +S9, 0.25 μmol/plate) was 3.7. The “number of revertants per plate” value ([1]; TA 100, +S9, 0.25 μmol/plate) was 478.7 ± 4.22 revertants/plate, the “mutagenicity ratio (MR)” value ([1]; TA 100, +S9, 0.5 μmol/plate) was 4.86 and the “number of revertants per plate” value ([1]; TA 100, +S9, 0.5 μmol/plate) was 628 ± 40.8 revertants/plate. The “mutagenicity ratio (MR)” value ([1]; TA 100, +S9, 1 μmol/plate) was 5.72, the “number of revertants per plate” value ([1]; TA 100, +S9, 1 μmol/plate) was 739 ± 25.4 revertants/plate and the “mutagenicity ratio (MR)” value ([1]; TA 100, +S9, 2 μmol/plate) was 5.79. The “number of revertants per plate” value ([1]; TA 100, +S9, 2 μmol/plate) was 750 ± 13.6 revertants/plate, the “mutagenicity ratio (MR)” value ([1]; TA 100, −S9, 0.12 μmol/plate) was 1.04 and the “number of revertants per plate” value ([1]; TA 100, −S9, 0.12 μmol/plate) was 143.3 ± 5 revertants/plate. The “mutagenicity ratio (MR)” value ([1]; TA 100, −S9, 0.25 μmol/plate) was 0.99, the “number of revertants per plate” value ([1]; TA 100, −S9, 0.25 μmol/plate) was 135.3 ± 12 revertants/plate and the “mutagenicity ratio (MR)” value ([1]; TA 100, −S9, 0.5 μmol/plate) was 0.99. For the same compound, the “number of revertants per plate” value ([1]; TA 100, −S9, 0.5 μmol/plate) was 136.3 ± 13 revertants/plate, the “mutagenicity ratio (MR)” value ([1]; TA 100, −S9, 1 μmol/plate) was 0.89 and the “number of revertants per plate” value ([1]; TA 100, −S9, 1 μmol/plate) was 121.5 ± 14 revertants/plate. For the same compound, the “mutagenicity ratio (MR)” value ([1]; TA 100, −S9, 2 μmol/plate) was 1.30, the “number of revertants per plate” value ([1]; TA 100, −S9, 2 μmol/plate) was 177 ± 23.6 revertants/plate and the “mutagenicity ratio (MR)” value ([2]; TA 102, +S9, 0.12 μmol/plate) was 0.9. The “number of revertants per plate” value ([2]; TA 102, +S9, 0.12 μmol/plate) was 335.3 ± 11 revertants/plate, the “mutagenicity ratio (MR)” value ([2]; TA 102, +S9, 0.25 μmol/plate) was 0.8 and the “number of revertants per plate” value ([2]; TA 102, +S9, 0.25 μmol/plate) was 295.3 ± 28 revertants/plate. The “mutagenicity ratio (MR)” value ([2]; TA 102, +S9, 0.5 μmol/plate) was 1.09, the “number of revertants per plate” value ([2]; TA 102, +S9, 0.5 μmol/plate) was 406 ± 14.1 revertants/plate and the “mutagenicity ratio (MR)” value ([2]; TA 102, +S9, 1 μmol/plate) was 1.25. The “number of revertants per plate” value ([2]; TA 102, +S9, 1 μmol/plate) was 465 ± 10.6 revertants/plate, the “mutagenicity ratio (MR)” value ([2]; TA 102, +S9, 2 μmol/plate) was 1.2 and the “number of revertants per plate” value ([2]; TA 102, +S9, 2 μmol/plate) was 447 ± 19.8 revertants/plate. The “mutagenicity ratio (MR)” value ([2]; TA 102, −S9, 0.12 μmol/plate) was 1.29, the “number of revertants per plate” value ([2]; TA 102, −S9, 0.12 μmol/plate) was 256 ± 6.9 revertants/plate and the “mutagenicity ratio (MR)” value ([2]; TA 102, −S9, 0.25 μmol/plate) was 1.32. For the same compound, the “number of revertants per plate” value ([2]; TA 102, −S9, 0.25 μmol/plate) was 262 ± 19.1 revertants/plate, the “mutagenicity ratio (MR)” value ([2]; TA 102, −S9, 0.5 μmol/plate) was 1.35 and the “number of revertants per plate” value ([2]; TA 102, −S9, 0.5 μmol/plate) was 266.7 ± 18 revertants/plate. The “mutagenicity ratio (MR)” value ([2]; TA 102, −S9, 1 μmol/plate) was 1.34, the “number of revertants per plate” value ([2]; TA 102, −S9, 1 μmol/plate) was 265.7 ± 10 revertants/plate and the “mutagenicity ratio (MR)” value ([2]; TA 102, −S9, 2 μmol/plate) was 1.02. For the same compound, the “number of revertants per plate” value ([2]; TA 102, −S9, 2 μmol/plate) was 201 ± 4.7 revertants/plate.
